Source: US20250090558A1, “APPLICATION OF M[…] PROMOTING BONE FORMATION AND PREVENTING-TREATING OSTEOPOROSIS” (The First Affiliated Hospital of Zhejiang Chinese Medical …, priority 2023, published 2025)

What was measured:
[1] = tested on: livers, hearts, kidneys, and spleens of OVX model mice; test: biosafety evaluation, HE staining of organs in OVX model mice; type: in vivo, mouse; conditions: low-dose and high-dose, 8 weeks of intervention
Text: The livers, hearts, kidneys, and spleens of the mice in the OVX model post-intervention with miltefosine for 8 weeks are collected, and the tissue morphology of these organs is observed through hematoxylin and eosin (HE) staining.

primary osteoblasts [2] = test: RT-qPCR of osteogenic genes Sp7, Bglap, Alpl in primary osteoblasts; conditions: RT-PCR
Description: After euthanizing 3-5-day-old mouse with CO2, the euthanized mouse is soaked in 70% alcohol for disinfection for 15 minutes. The disinfected mouse is then carefully skinned from a top of the skull, and the skull tissue blocks are placed in an a-modified eagle medium (α-MEM) digestion culture medium containing 1 mg/mL collagenase-A and 1% penicillin/streptomycin. The skull tissue blocks are digested at 37° C. for 6 hours, with the cell tissue blocks being pipetted and blown every hour. After the digestion of the tissue blocks is complete to obtain a mixture, the mixture is filtered through a 70-μm cell strainer, centrifuged at 1000 revolutions per minute (rpm) for 5 minutes, and then resuspended in α-MEM culture medium to obtain mixed cells. The mixed cells are inoculated in a well plate to obtain osteoblasts, and the osteoblasts are cultured in complete α-MEM medium containing 10% fetal bovine serum. When a cell adhesion convergence degree of the osteoblasts reaches 60-70%, the osteoblasts are induced for osteogenic differentiation with an osteogenic culture medium containing ascorbic acid (50 g/mL) and β-glycerophosphate (10 millimoles per liter abbreviated as mM) for 7 days before the cells are collected for the next step of the experiment.
1.1.7 Extraction of Messenger Ribonucleic Acid (mRNA) of Cells and Detection of Reverse Transcription Quantitative Polymerase Chain Reaction (RT-qPCR)
TRIzol reagent (i.e., TRI reagent®) is used to harvest and extract total RNA from the osteoblast cultures. The mRNA is then reverse transcribed into complementary deoxyribonucleic acid (DNA) using the TaqMan reverse transcription kit (Biomake). After that, a real-time quantitative polymerase chain reaction (RT-qPCR) is conducted with the SYBR Premix Ex Taq™ II.

[3] = tested on: Ppm1a knockout (Ppm1a−/−) mice with bone defect; type: in vivo, mouse
osteoblasts = test: alkaline phosphatase staining, osteogenic differentiation of osteoblasts; type: cell-based, mouse; conditions: in vitro; 2.5 μM, 5.0 μM, 10 μM
OVX model mice = test: ovariectomy (OVX) model mouse, estrogen-deficient osteoporosis; type: in vivo; conditions: for number of TRAP-positive cells: distal femur sections
[4] = tested on: mouse model with femoral distal bone defect; test: bone defect repair in mouse model with femoral distal bone defect; type: in vivo
primary osteoblasts [5] = test: cell counting kit-8 (CCK-8) assay, viability of primary osteoblasts; type: cell-based, mouse
[6] = 8 weeks post-OVX, vs control group
[7] = CT analysis, one week after operation

Structure (SMILES): CCCCCCCCCCCCCCCCOP([O])(=O)OCC[N+](C)(C)C (stereo not drawn) [miltefosine, hexadecylphosphocholine]
- tissue morphology of livers, hearts, kidneys, and spleens (HE staining) [1]: no obvious lesions or pathological changes
- expression of osteogenic gene Alpl (mRNA) (primary osteoblasts [2]): upregulate
- expression of osteogenic gene Bglap (mRNA) (primary osteoblasts [2]): upregulate
- expression of osteogenic gene Sp7 (mRNA) (primary osteoblasts [2]): upregulate
- osteogenic effects in bone defect repair (Micro-CT) [3]: could not exert the above osteogenic effects
- osteogenic differentiation capacity of osteoblasts (alkaline phosphatase staining) (osteoblasts): significantly enhance
- BMD at the distal femur (OVX model mice; 8 weeks post-OVX): significantly increase
- Conn.Dn (OVX model mice; 8 weeks post-OVX): improve
- SMI of the bone tissue (OVX model mice; 8 weeks post-OVX): improve
- bone loss at the distal femur (histomorphometric analysis, ABH/OG, trabecular bone area fraction) (OVX model mice; 8 weeks post-OVX): reduce bone loss
- number of osteoblasts on the trabecular bone surface (OVX model mice; 8 weeks post-OVX): increase
- BV/TV of trabecular bone (OVX model mice; [6]): significantly increased
- Tb.N (OVX model mice; [6]): significantly increased
- Tb.Sp (OVX model mice; [6]): markedly reduced
- Tb.Th (OVX model mice; [6]): significantly increased
- expression level of mature osteoclast marker cathepsin K (CTSK) (OVX model mice; control group vs treated groups): no significant difference
- bone formation by ALP immunohistochemical staining (OVX model mice; distal femur, 8 weeks post-OVX): significantly promote the bone formation
- bone formation by immunofluorescence staining for OCN (OVX model mice; distal femur, 8 weeks post-OVX): significantly promote the bone formation
- formation of adipocytes (Fabp4 immunohistochemical staining) (OVX model mice; distal femur, 8 weeks post-OVX): no obvious effect
- number of TRAP-positive cells (OVX model mice; high-dose): slightly reduces
- bone loss at the distal metaphysis of the femur (micro-CT) (OVX model mice; low-dose and high-dose groups, 8 weeks post-OVX): significantly less
- number of TRAP-positive cells (OVX model mice; low-dose): does not affect
- BMD in the bone defect repair area [4, 7]: increase
- BV/TV in the bone defect repair area [4, 7]: increase
- trabecular number (Tb.N) in the bone defect repair area [4, 7]: increase
- expression level of osteocalcin (OCN) in the bone defect repair area ([4]; immunohistochemistry, vs control group): significantly increased
- bone repair (μ-CT scans of femur) ([4]; one week after model creation): effectively accelerate bone repair
- area of new bone in the bone defect area (SO/FG staining) ([4]; vs control (vehicle) group, one week after operation): significantly larger
- effect on the viability of the primary osteoblasts (primary osteoblasts [5]; 0.5 μM to 20 μM in vitro): no significant effect
- cell death of the primary osteoblasts (primary osteoblasts [5]; 50 μM): approximately 50%
